Measurements taken from paper PMC12361428 (Nature Communications, 2025).
Values joined by “and” are separate entries in the source; they are usually repeats but may differ in a detail not shown here. Equal values may be shown once.

Key:
[1] = biological target: T1, Nluc-A3AR Y15A^1.35 (Homo sapiens, UniProt P0DMS8, Y15A); test: biochemical; format: binding
T1 construct: expressed in transfected cells; host or cells: HEK293a
Experimental: (§1) All experiments were performed in duplicate.
(§2) Data were expressed as the mean ± standard error. All binding and Trupath data were analysed using the nonlinear regression curve-fitting programme with Prism 10 (GraphPad, San Diego, CA, USA). For nanoBRET saturation binding experiments, specific binding was calculated by subtracting non-specific binding (defined as binding in the presence of 10 µM MRS1220) from total binding. Specific binding data in each experiment were then normalised to the maximal binding (Bmax) of WT and fit to a one-site specific binding equation: Y =Bmax*[X]/(Kd + [X]). For nanoBRET competition binding experiments, data were normalised to total and non-specific binding responses and fit to a one-site—Fit Ki equation. Trupath's experimental data was baseline-corrected to the initial four baseline reads and then adjusted to the buffer control response. The area under the curve (AUC) for each response was calculated and plotted with a non-linear regression curve (log[agonist] vs response, three-parameter model), using the equation: Y = Bottom + (Top–Bottom)/(1 + 10^((LogEC50-X))). Here, X represents the log dose of the agonist, Y is the BRET2 AUC response, Top and Bottom are the curve plateaus, and EC50 is the agonist concentration yielding a response halfway between the Bottom and Top values. […] The efficacy of the agonists (τA) was separately calculated using the Black–Leff operational model of agonism[79] using KA values from Table 2 and then corrected for receptor expression relative to WT using Bmax values from Table 1[80]. Significant differences vs WT were determined by one-way ANOVA with a Dunnett’s multiple comparison test.

[2] = biological target: T2, Nluc-A3AR H95F^3.37 (Homo sapiens, UniProt P0DMS8, H95F); test: biochemical; format: binding
T2 construct: expressed in transfected cells; host or cells: HEK293a
Experimental: as §1
(§3) Data were expressed as the mean ± standard error. All binding and Trupath data were analysed using the nonlinear regression curve-fitting programme with Prism 10 (GraphPad, San Diego, CA, USA). For nanoBRET saturation binding experiments, specific binding was calculated by subtracting non-specific binding (defined as binding in the presence of 10 µM MRS1220) from total binding. Specific binding data in each experiment were then normalised to the maximal binding (Bmax) of WT and fit to a one-site specific binding equation: Y =Bmax*[X]/(Kd + [X]). For nanoBRET competition binding experiments, data were normalised to total and non-specific binding responses and fit to a one-site—Fit Ki equation. Trupath's experimental data was baseline-corrected to the initial four baseline reads and then adjusted to the buffer control response. The area under the curve (AUC) for each response was calculated and plotted with a non-linear regression curve (log[agonist] vs response, three-parameter model), using the equation: Y = Bottom + (Top–Bottom)/(1 + 10^((LogEC50-X))). Here, X represents the log dose of the agonist, Y is the BRET2 AUC response, Top and Bottom are the curve plateaus, and EC50 is the agonist concentration yielding a response halfway between the Bottom and Top values. […] Significant differences vs WT were determined by one-way ANOVA with a Dunnett’s multiple comparison test. Significance levels are indicated as follows: P ≤ 0.0001****, P = 0.0001–0.001***, P = 0.001–0.01**, and P = 0.01–0.05*.

[3] = biological target: T3, A3AR-BRIL-S97R (Homo sapiens, UniProt P0DMS8, N160A/S97R, form not given); test: NanoBRET competition binding vs XAC-630; conditions: for XAC-630 NanoBRET binding, normalised (Figure S2H), individual replicates: A3AR-BRIL-S97R
T3 sequence (P0DMS8 1-318 S97R/N160A): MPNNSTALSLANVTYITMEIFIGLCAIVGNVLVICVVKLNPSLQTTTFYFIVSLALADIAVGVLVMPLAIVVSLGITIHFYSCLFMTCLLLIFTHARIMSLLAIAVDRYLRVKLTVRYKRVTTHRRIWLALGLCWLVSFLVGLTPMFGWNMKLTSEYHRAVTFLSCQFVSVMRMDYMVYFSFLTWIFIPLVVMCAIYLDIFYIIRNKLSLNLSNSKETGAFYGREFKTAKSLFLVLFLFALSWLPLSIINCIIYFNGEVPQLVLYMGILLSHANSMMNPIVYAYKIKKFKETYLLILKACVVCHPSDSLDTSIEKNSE

[4] = biological target: T4, Nluc-A3AR V169E^45.53 (Homo sapiens, UniProt P0DMS8, V169E); test: biochemical; format: binding
T4 construct: expressed in transfected cells; host or cells: HEK293a
Experimental: as §1, §3

[5] = biological target: T5, Nluc-A3AR S271A^7.42 (Homo sapiens, UniProt P0DMS8, S271A); test: biochemical; format: binding
T5 construct: expressed in transfected cells; host or cells: HEK293a
Experimental: as §1
(§4) Data were expressed as the mean ± standard error. All binding and Trupath data were analysed using the nonlinear regression curve-fitting programme with Prism 10 (GraphPad, San Diego, CA, USA). For nanoBRET saturation binding experiments, specific binding was calculated by subtracting non-specific binding (defined as binding in the presence of 10 µM MRS1220) from total binding. Specific binding data in each experiment were then normalised to the maximal binding (Bmax) of WT and fit to a one-site specific binding equation: Y =Bmax*[X]/(Kd + [X]). For nanoBRET competition binding experiments, data were normalised to total and non-specific binding responses and fit to a one-site—Fit Ki equation. […] Significant differences vs WT were determined by one-way ANOVA with a Dunnett’s multiple comparison test.

[6] = biological target: T6, Nluc-A3AR T94A^3.36 (Homo sapiens, UniProt P0DMS8, T94A); test: biochemical; format: binding
T6 construct: expressed in transfected cells; host or cells: HEK293a
Experimental: as §1, §2

[7] = biological target: T7, Nluc-A3AR Y265A^7.36 (Homo sapiens, UniProt P0DMS8, Y265A); test: biochemical; format: binding
T7 construct: expressed in transfected cells; host or cells: HEK293a
Experimental: as §1, §2

[8] = biological target: T8, Nluc-A3AR S73A^2.65 (Homo sapiens, UniProt P0DMS8, S73A); test: biochemical; format: binding
T8 construct: expressed in transfected cells; host or cells: HEK293a
Experimental: as §1, §4

[9] = biological target: T9, Nluc-A3AR WT (Homo sapiens, UniProt P0DMS8); test: biochemical; format: binding
T9 construct: expressed in transfected cells; host or cells: HEK293a
Experimental: as §1, §4

[10] = biological target: T10, Nluc-A3AR M174A^5.35 (Homo sapiens, UniProt P0DMS8, M174A); test: biochemical; format: binding
T10 construct: expressed in transfected cells; host or cells: HEK293a
Experimental: as §1, §2

[11] = biological target: T11, Nluc-A3AR H95A^3.37 (Homo sapiens, UniProt P0DMS8, H95A); test: biochemical; format: binding
T11 construct: expressed in transfected cells; host or cells: HEK293a
T11 sequence (P0DMS8 whole entry H95A): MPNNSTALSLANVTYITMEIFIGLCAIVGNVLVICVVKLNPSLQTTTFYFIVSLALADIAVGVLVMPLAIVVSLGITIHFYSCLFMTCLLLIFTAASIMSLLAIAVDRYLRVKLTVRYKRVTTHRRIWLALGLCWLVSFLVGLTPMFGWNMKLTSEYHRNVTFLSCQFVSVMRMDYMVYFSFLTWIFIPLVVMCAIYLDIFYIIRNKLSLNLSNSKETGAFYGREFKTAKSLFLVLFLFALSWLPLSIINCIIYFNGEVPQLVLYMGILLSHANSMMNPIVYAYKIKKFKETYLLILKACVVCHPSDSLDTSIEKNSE
Experimental: as §1, §3

T6 sequence (P0DMS8 whole entry T94A): as the sequence (P0DMS8 whole entry H95A) above, with T94A, A95H counted along it
T2 sequence (P0DMS8 whole entry H95F): as the sequence (P0DMS8 whole entry H95A) above, with A95F counted along it
T5 sequence (P0DMS8 whole entry S271A): as the sequence (P0DMS8 whole entry H95A) above, with A95H, S271A counted along it
T9 sequence (P0DMS8 whole entry): as the sequence (P0DMS8 whole entry H95A) above, with A95H counted along it
T10 sequence (P0DMS8 whole entry M174A): as the sequence (P0DMS8 whole entry H95A) above, with A95H, M174A counted along it
T4 sequence (P0DMS8 whole entry V169E): as the sequence (P0DMS8 whole entry H95A) above, with A95H, V169E counted along it
T8 sequence (P0DMS8 whole entry S73A): as the sequence (P0DMS8 whole entry H95A) above, with S73A, A95H counted along it
T7 sequence (P0DMS8 whole entry Y265A): as the sequence (P0DMS8 whole entry H95A) above, with A95H, Y265A counted along it
T1 sequence (P0DMS8 whole entry Y15A): as the sequence (P0DMS8 whole entry H95A) above, with Y15A, A95H counted along it

In the case of `CCCn1c(=O)c2c(nc3cc(OC)ccn32)n(CCCCNC(=O)c2ccc(S(=O)(=O)F)cc2)c1=O` [LUF7602], the pKi ([1]; Y15A) is reported as 6.6 ± 0.2 (4), the “reduction of binding affinity vs WT” value ([1]; Y15A) is reported as 10 fold and the “ΔpKi relative to WT” value ([1]; Y15A) is reported as -0.882. For the same compound, the remaining activity at 60.26 pM ([1]; read-out: normalised XAC-630 binding, Y15A, log[LUF7602] -10.22 M) was 100%, the pKi ([2]; H95F) was 6.4 ± 0.09 (3) and the “reduction of binding affinity vs WT” value ([2]; H95F) was ~ 10 fold. The “ΔpKi relative to WT” value ([2]; H95F) was -1.06, the remaining activity at 0.006026 µM ([2]; read-out: normalised XAC-630 binding, H95F, log[LUF7602] -8.22 M) was 88.8% and the remaining activity at 60.26 pM ([2]; read-out: normalised XAC-630 binding, H95F, log[LUF7602] -10.22 M) was 100%. For the same compound, the remaining activity at 0.6026 µM ([2]; read-out: normalised XAC-630 binding, H95F, log[LUF7602] -[…]) was 47%, the “pKi Mean (Figure S2H)” value ([3]; BRIL-S97R, n 3) was 7.024 and the “XAC-630 NanoBRET binding, normalised (Figure S2H), individual replicates” value (“XAC-630 NanoBRET binding, normalised” for short) ([3]; log LUF7602 -5) was 0. The “XAC-630 NanoBRET binding, normalised” value ([3]; log LUF7602 -6) was 19.3899 and 25.983 and 15.2236, the “XAC-630 NanoBRET binding, normalised” value ([3]; log LUF7602 -7) was 80.7723 and 57.132 and 87.3086 and the “XAC-630 NanoBRET binding, normalised” value ([3]; log LUF7602 -8) was 99.2468 and 73.5169 and 111.113. For the same compound, the “XAC-630 NanoBRET binding, normalised” value ([3]; log LUF7602 -9) was 98.8814 and 81.6512 and 110.04, the “XAC-630 NanoBRET binding, normalised” value ([3]; log LUF7602 -10) was 102.286 and 79.8771 and 109.058 and the pKi ([4]; V169E) was 7.2 ± 0.05 (3). The “ΔpKi relative to WT” value ([4]; V169E) was -0.293, the remaining activity at 0.06026 µM ([4]; read-out: normalised XAC-630 binding, V169E, log[LUF7602] -7.22 M) was 87.5% and the remaining activity at 0.006026 µM ([4]; read-out: normalised XAC-630 binding, V169E, log[LUF7602] -8.22 M) was 97.5%. The remaining activity at 0.0006026 µM ([4]; read-out: normalised XAC-630 binding, V169E, log[LUF7602] -9.22 M) was 105%, the remaining activity at 60.26 pM ([4]; read-out: normalised XAC-630 binding, V169E, log[LUF7602] -10.22 M) was 100% and the remaining activity at 0.6026 µM ([4]; read-out: normalised XAC-630 binding, V169E, log[LUF7602] -[…]) was 17%. For the same compound, the “ΔpKi relative to WT” value ([5]; S271A) was 0.423, the pKi ([5]; S271A, 40 nM XAC-630) was 7.9 ± 0.09 (3) and the remaining activity at 60.26 pM ([5]; read-out: normalised XAC-630 binding, S271A, log[LUF7602] -10.22 M) was 100%. The remaining activity at 0.6026 µM ([5]; read-out: normalised XAC-630 binding, S271A, log[LUF7602] -[…]) was 5.71%, the pKi ([6]; T94A) was 7.3 ± 0.05 (3) and the “ΔpKi relative to WT” value ([6]; T94A) was -0.208. For the same compound, the remaining activity at 0.06026 µM ([6]; read-out: normalised XAC-630 binding, T94A, log[LUF7602] -7.22 M) was 77.1%, the remaining activity at 0.006026 µM ([6]; read-out: normalised XAC-630 binding, T94A, log[LUF7602] -8.22 M) was 100% and the remaining activity at 0.0006026 µM ([6]; read-out: normalised XAC-630 binding, T94A, log[LUF7602] -9.22 M) was 87.2%. For the same compound, the remaining activity at 60.26 pM ([6]; read-out: normalised XAC-630 binding, T94A, log[LUF7602] -10.22 M) was 100%, the pKi ([7]; Y265A) was 6.3 ± 0.07 (3) and the “reduction of binding affinity vs WT” value ([7]; Y265A) was 15 fold. For the same compound, the “ΔpKi relative to WT” value ([7]; Y265A) was -1.2, the remaining activity at […] ([7]; read-out: normalised XAC-630 binding, Y265A, log[LUF7602] -9.5 M) was 100% and the pKi ([8]; S73A) was 7.2 ± 0.06 (3). For the same compound, the “ΔpKi relative to WT” value ([8]; S73A) was -0.31, the remaining activity at 0.06026 µM ([8]; read-out: normalised XAC-630 binding, S73A, log[LUF7602] -7.22 M) was 71.4% and the remaining activity at 0.006026 µM ([8]; read-out: normalised XAC-630 binding, S73A, log[LUF7602] -8.22 M) was 90.3%. It also gave a remaining activity at 0.0006026 µM ([8]; read-out: normalised XAC-630 binding, S73A, log[LUF7602] -9.22 M) of 91.8%, a remaining activity at 60.26 pM ([8]; read-out: normalised XAC-630 binding, S73A, log[LUF7602] -10.22 M) of 100% and a remaining activity at 0.6026 µM ([8]; read-out: normalised XAC-630 binding, S73A, log[LUF7602] -[…]) of 19.1%. For the same compound, the pKi ([9]; WT) was 7.5 ± 0.05 (4), the “ΔpKi relative to WT” value ([9]; WT) was 0 and the “pKi Mean (Figure S2H)” value ([9]; WT, n 3) was 7.306. For the same compound, the “XAC-630 NanoBRET binding, normalised” value ([9]; log LUF7602 -5, A3AR-WT) was 0, the normalised XAC-630 binding at 10 µM ([9]; read-out: XAC-630 NanoBRET binding, normalised (Figure S2H), individual replicates, log LUF7602 -5, A3AR-WT) was 0% and the normalised XAC-630 binding at 0.1 µM ([9]; read-out: XAC-630 NanoBRET binding, normalised (Figure S2H), individual replicates, log LUF7602 -7, A3AR-WT) was 59.3%. The normalised XAC-630 binding at 0.01 µM ([9]; read-out: XAC-630 NanoBRET binding, normalised (Figure S2H), individual replicates, log LUF7602 -8, A3AR-WT) was 78%, the normalised XAC-630 binding at 0.0001 µM ([9]; read-out: XAC-630 NanoBRET binding, normalised (Figure S2H), individual replicates, log LUF7602 -10, A3AR-WT) was 89.4% and the normalised XAC-630 binding at 0.06026 µM ([9]; read-out: normalised XAC-630 binding, WT, log[LUF7602] -7.22 M) was 69.6%. The normalised XAC-630 binding at 0.006026 µM ([9]; read-out: normalised XAC-630 binding, WT, log[LUF7602] -8.22 M) was 96.8%, the normalised XAC-630 binding at 0.0006026 µM ([9]; read-out: normalised XAC-630 binding, WT, log[LUF7602] -9.22 M) was 90.4% and the normalised XAC-630 binding at 60.26 pM ([9]; read-out: normalised XAC-630 binding, WT, log[LUF7602] -10.22 M) was 100%. For the same compound, the pKi ([10]; M174A) was 6.5 ± 0.09 (3), the “reduction of binding affinity vs WT” value ([10]; M174A) was 10 fold and the “ΔpKi relative to WT” value ([10]; M174A) was -0.957. It also gave a remaining activity at 0.06026 µM ([10]; read-out: normalised XAC-630 binding, M174A, log[LUF7602] -7.22 M) of 96.7%, a remaining activity at 0.0006026 µM ([10]; read-out: normalised XAC-630 binding, M174A, log[LUF7602] -9.22 M) of 112% and a remaining activity at 60.26 pM ([10]; read-out: normalised XAC-630 binding, M174A, log[LUF7602] -10.22 M) of 100%. The remaining activity at 0.6026 µM ([10]; read-out: normalised XAC-630 binding, M174A, log[LUF7602] -[…]) was 44.9%, the pKi ([11]; H95A) was 6.2 ± 0.2 (3) and the “reduction of binding affinity vs WT” value ([11]; H95A) was ~ 10 fold. For the same compound, the “ΔpKi relative to WT” value ([11]; H95A) was -1.328, the remaining activity at 0.1 µM ([11]; read-out: normalised XAC-630 binding, H95A, log[LUF7602] -7 M) was 98.1% and the remaining activity at 0.01 µM ([11]; read-out: normalised XAC-630 binding, H95A, log[LUF7602] -8 M) was 113%. For the same compound, the remaining activity at 0.001 µM ([11]; read-out: normalised XAC-630 binding, H95A, log[LUF7602] -9 M) was 104% and the remaining activity at 0.0001 µM ([11]; read-out: normalised XAC-630 binding, H95A, log[LUF7602] -10 M) was 100%.
